Results as given in US10676429B2, “Sulfamoyl-arylamides and the use thereof as medicaments for the treatment of hepatitis B” (priority 2012, dated 2020).

Key:
HBV [1] = assay: Anti-HBV activity in HepG2.117 cell line (Tet-off, intracellular HBV DNA, realtime PCR); assay type: cell-based; settings: Hepatitis B virus, HepG2.117, 72 h
HBV [2] = assay: Anti-HBV activity in stable transfected HepG2.2.15 cell line (HBV DNA from secreted virions, realtime PCR); assay type: cell-based; settings: Hepatitis B virus, HepG2.2.15, 144 h
[3] = Cytotoxicity in HepG2 cells, 4 days, Resazurin assay; settings: human, HepG2 cells
[4] = HepG2.117 cells, 3 days of treatment, intracellular HBV DNA, read-out: HepG2 117 EC50
[5] = HepG2.2.15 cells, 6 days of treatment, secreted virion HBV DNA, read-out: HepG2 2.15 EC50

SMILES: Cc1cc(NC(=O)c2cccc(S(=O)(=O)NC(C)Cc3ccccc3)c2)ccc1F (stereo not drawn) [Compound 169]
- EC50 (HBV [1]; read-out: HepG2 117 EC50 (μM)): 1.41 µM
- EC50 (HBV [2]; read-out: HepG2 2.15 EC50 (μM)): 0.24 µM
- CC50 at 4 days [3]: 14900 nM

SMILES: Cc1cc(NC(=O)c2cccc(S(=O)(=O)NCCC3CC3)c2)ccc1F [Compound 170]
- EC50 (HBV [1]; [4]): 0.45 µM
- EC50 (HBV [2]; [5]): 0.26 µM
- CC50 at 4 days [3]: > 25000 nM

SMILES: Cc1cc(NC(=O)c2cccc(S(=O)(=O)NC3COCC3O)c2)ccc1F (stereo not drawn) [Compound 171]
- EC50 (HBV [1]; [4]): 4.39 µM
- EC50 (HBV [2]; [5]): 0.79 µM
- CC50 at 4 days [3]: > 25000 nM

SMILES: Cc1cc(NC(=O)c2cccc(S(=O)(=O)N[C@@H]3CCC[C@@H]3O)c2)ccc1F [Compound 172]
- EC50 (HBV [1]; [4]): 0.61 µM
- EC50 (HBV [2]; [5]): 0.26 µM
- CC50 at 4 days [3]: > 25000 nM

SMILES: Cc1cc(NC(=O)c2cccc(S(=O)(=O)N[C@@H]3CCC[C@H]3O)c2)ccc1F [Compound 173]
- EC50 (HBV [1]; [4]): 0.36 µM
- EC50 (HBV [2]; [5]): 0.37 µM
- CC50 at 4 days [3]: > 25000 nM

SMILES: Cc1cc(NC(=O)c2cccc(S(=O)(=O)N[C@@H](C)C3CC3)c2)ccc1F [Compound 174]
- EC50 (HBV [1]; [4]): 2.84 µM
- EC50 (HBV [2]; [5]): 0.47 µM
- CC50 at 4 days [3]: > 25000 nM

SMILES: Cc1cc(NC(=O)c2cccc(S(=O)(=O)N[C@@H]3c4ccccc4C[C@H]3O)c2)ccc1F [Compound 175]
- EC50 (HBV [1]; [4]): 0.15 µM
- EC50 (HBV [2]; [5]): 0.23 µM
- CC50 at 4 days [3]: > 25000 nM

SMILES: Cc1cc(NC(=O)c2cccc(S(=O)(=O)N[C@H]3c4ccccc4C[C@@H]3O)c2)ccc1F [Compound 176]
- EC50 (HBV [1]; [4]): 0.56 µM
- EC50 (HBV [2]; [5]): 0.62 µM
- CC50 at 4 days [3]: > 25000 nM

SMILES: Cc1cc(NC(=O)c2cccc(S(=O)(=O)N[C@H]3c4ccccc4C[C@H]3O)c2)ccc1F [Compound 177]
- EC50 (HBV [1]; [4]): 0.72 µM
- EC50 (HBV [2]; [5]): 0.77 µM
- CC50 at 4 days [3]: > 25000 nM

SMILES: Cc1cc(NC(=O)c2cccc(S(=O)(=O)N[C@@H]3CCc4ccccc4[C@H]3O)c2)ccc1F [Compound 178]
- EC50 (HBV [1]; [4]): 2.54 µM
- EC50 (HBV [2]; [5]): 0.75 µM
- CC50 at 4 days [3]: > 25000 nM

SMILES: Cc1cc(NC(=O)c2cccc(S(=O)(=O)NC3CCC(=O)N(C)C3)c2)ccc1F (stereo not drawn) [Compound 180]
- EC50 (HBV [1]; [4]): 1.3 µM
- EC50 (HBV [2]; [5]): 0.76 µM
- CC50 at 4 days [3]: > 25000 nM

SMILES: Cc1cc(NC(=O)c2cccc(S(=O)(=O)NC3CCN(C)C3=O)c2)ccc1F (stereo not drawn) [Compound 181]
- EC50 (HBV [1]; [4]): 2.04 µM
- EC50 (HBV [2]; [5]): 2.59 µM
- CC50 at 4 days [3]: > 25000 nM

SMILES: Cc1cc(NC(=O)c2cccc(S(=O)(=O)NC3CN(C(=O)OC(C)(C)C)C3)c2)ccc1F [Compound 182]
- EC50 (HBV [1]; [4]): 0.88 µM
- EC50 (HBV [2]; [5]): 0.31 µM
- CC50 at 4 days [3]: > 25000 nM

SMILES: Cc1cc(NC(=O)c2cccc(S(=O)(=O)NC3(C(F)(F)F)CC3)c2)ccc1F [Compound 183]
- EC50 (HBV [1]; [4]): 0.84 µM
- EC50 (HBV [2]; [5]): 0.08 µM
- CC50 at 4 days [3]: > 25000 nM

SMILES: Cc1cc(NC(=O)c2cccc(S(=O)(=O)NC3CC(O)C3)c2)ccc1F (stereo not drawn) [Compound 184]
- EC50 (HBV [1]; [4]): 0.4 µM
- EC50 (HBV [2]; [5]): 0.15 µM
- CC50 at 4 days [3]: > 25000 nM

SMILES: Cc1cc(NC(=O)c2cccc(S(=O)(=O)N[C@H]3C[C@H](O)C3)c2)ccc1F [Compound 184a]
- EC50 (HBV [1]; [4]): 0.77 µM
- EC50 (HBV [2]; [5]): 0.31 µM
- CC50 at 4 days [3]: > 25000 nM

SMILES: Cc1cc(NC(=O)c2cccc(S(=O)(=O)N[C@H]3C[C@@H](O)C3)c2)ccc1F [Compound 184b]
- EC50 (HBV [1]; [4]): 0.33 µM
- EC50 (HBV [2]; [5]): 0.3 µM
- CC50 at 4 days [3]: > 25000 nM

SMILES: COC(=O)N1CC(NS(=O)(=O)c2cccc(C(=O)Nc3ccc(F)c(C)c3)c2)C1 [Compound 185]
- EC50 (HBV [1]; [4]): 0.62 µM
- EC50 (HBV [2]; [5]): 0.22 µM
- CC50 at 4 days [3]: > 25000 nM

SMILES: Cc1cc(NC(=O)c2cccc(S(=O)(=O)NC(C)C)c2)cc(C)c1F [Compound 186]
- EC50 (HBV [1]; [4]): 1.34 µM
- EC50 (HBV [2]; [5]): 0.2 µM
- CC50 at 4 days [3]: > 25000 nM

SMILES: Cc1ccc(S(=O)(=O)NC2(C)COC2)c(F)c1C(=O)Nc1ccc(F)c(C#N)c1 [Compound 191]
- EC50 (HBV [1]; [4]): 0.36 µM
- EC50 (HBV [2]; [5]): 0.33 µM
- CC50 at 4 days [3]: > 25000 nM

SMILES: Cc1ccc(S(=O)(=O)NC2(C)COC2)c(F)c1C(=O)Nc1ccc(F)c(F)c1 [Compound 194]
- EC50 (HBV [1]; [4]): 0.31 µM
- EC50 (HBV [2]; [5]): 0.38 µM
- CC50 at 4 days [3]: > 25000 nM

SMILES: Cc1ccc(S(=O)(=O)NC2(C)COC2)c(F)c1C(=O)Nc1ccc(F)c(Cl)c1 [Compound 195]
- EC50 (HBV [1]; [4]): 0.18 µM
- EC50 (HBV [2]; [5]): 0.27 µM
- CC50 at 4 days [3]: > 25000 nM

SMILES: O=C(Nc1ccc(F)c(F)c1)c1c(F)ccc(S(=O)(=O)N[C@H]2CCOC2)c1F [Compound 196]
- EC50 (HBV [1]; [4]): 0.07 µM
- EC50 (HBV [2]; [5]): 0.13 µM
- CC50 at 4 days [3]: > 25000 nM

SMILES: O=C(Nc1ccc(F)c(Cl)c1)c1c(F)ccc(S(=O)(=O)N[C@H]2CCOC2)c1F [Compound 201]
- EC50 (HBV [1]; [4]): 0.06 µM
- EC50 (HBV [2]; [5]): 0.06 µM
- CC50 at 4 days [3]: > 25000 nM

SMILES: CC1(NS(=O)(=O)c2cc(Cl)cc(C(=O)Nc3ccc(F)c(C(F)F)c3)c2F)COC1 [Compound 217]
- EC50 (HBV [1]; [4]): 0.6 µM
- EC50 (HBV [2]; [5]): 0.2 µM
- CC50 at 4 days [3]: > 25000 nM

SMILES: CC1(NS(=O)(=O)c2cccc(C(=O)Nc3ccc(F)c(C(F)F)c3)c2F)COC1 [Compound 218]
- EC50 (HBV [1]; [4]): 0.1 µM
- EC50 (HBV [2]; [5]): 0.12 µM
- CC50 at 4 days [3]: > 25000 nM

SMILES: O=C(Nc1ccc(F)c(C(F)F)c1)c1cccc(S(=O)(=O)N[C@H]2CCOC2)c1F [Compound 220]
- EC50 (HBV [1]; [4]): 0.09 µM
- EC50 (HBV [2]; [5]): 0.11 µM
- CC50 at 4 days [3]: > 25000 nM

SMILES: Cc1cc(NC(=O)c2cccc(S(=O)(=O)NC3(C)COC3)c2F)ccc1F [Compound 222]
- EC50 (HBV [1]; [4]): 0.1 µM
- EC50 (HBV [2]; [5]): 0.05 µM
- CC50 at 4 days [3]: > 25000 nM

SMILES: Cc1cc(NC(=O)c2cccc(S(=O)(=O)NC(C)Cc3ccncc3)c2)ccc1F (stereo not drawn) [Compound 224]
- EC50 (HBV [1]; [4]): 0.76 µM
- EC50 (HBV [2]; [5]): 0.16 µM
- CC50 at 4 days [3]: > 25000 nM

SMILES: Cc1cc(NC(=O)c2cccc(S(=O)(=O)N[C@H](C)C(F)(F)F)c2)ccc1F [Compound 225]
- EC50 (HBV [1]; [4]): 1.34 µM
- EC50 (HBV [2]; [5]): 0.09 µM
- CC50 at 4 days [3]: > 25000 nM

SMILES: Cc1cc(NC(=O)c2cccc(S(=O)(=O)N[C@@H](C)C(F)(F)F)c2)ccc1F [Compound 226]
- EC50 (HBV [1]; [4]): 1.9 µM
- EC50 (HBV [2]; [5]): 0.27 µM
- CC50 at 4 days [3]: > 25000 nM

SMILES: Cc1cc(NC(=O)c2cccc(S(=O)(=O)NCC(F)F)c2)ccc1F [Compound 227]
- EC50 (HBV [1]; [4]): 0.71 µM
- EC50 (HBV [2]; [5]): 0.16 µM
- CC50 at 4 days [3]: > 25000 nM

SMILES: Cc1cc(NC(=O)c2cccc(S(=O)(=O)NCC(F)(F)F)c2)ccc1F [Compound 228]
- EC50 (HBV [1]; [4]): 1.19 µM
- EC50 (HBV [2]; [5]): 0.17 µM
- CC50 at 4 days [3]: > 25000 nM

SMILES: Cc1cc(NC(=O)c2cccc(S(=O)(=O)NC3CCC(F)(F)C3)c2)ccc1F (stereo not drawn) [Compound 229]
- EC50 (HBV [1]; [4]): 0.49 µM
- EC50 (HBV [2]; [5]): 0.2 µM
- CC50 at 4 days [3]: > 25000 nM

SMILES: Cc1cc(NC(=O)c2cc(S(=O)(=O)NC(C)C)oc2C)ccc1F [Compound 230]
- EC50 (HBV [1]; [4]): 1.52 µM
- EC50 (HBV [2]; [5]): 0.73 µM
- CC50 at 4 days [3]: > 25000 nM

SMILES: Cc1cc(NC(=O)c2ccc(S(=O)(=O)NC3(C)COC3)o2)ccc1F [Compound 231]
- EC50 (HBV [1]; [4]): 0.32 µM
- EC50 (HBV [2]; [5]): 0.21 µM
- CC50 at 4 days [3]: > 25000 nM

SMILES: CC1(NS(=O)(=O)c2ccc(Cl)c(C(=O)Nc3ccc(F)c(C(F)(F)F)c3)c2)COC1 [Compound 233]
- EC50 (HBV [1]; [4]): > 1 µM
- EC50 (HBV [2]; [5]): > 1 µM
- CC50 at 4 days [3]: > 25000 nM

SMILES: CC1(NS(=O)(=O)c2ccc(Cl)c(C(=O)Nc3ccc(F)c(F)c3)c2)COC1 [Compound 234]
- EC50 (HBV [1]; [4]): 0.34 µM
- EC50 (HBV [2]; [5]): 0.72 µM
- CC50 at 4 days [3]: > 25000 nM

SMILES: CC1(NS(=O)(=O)c2ccc(Cl)c(C(=O)Nc3ccc(F)c(C(F)F)c3)c2)COC1 [Compound 235]
- EC50 (HBV [1]; [4]): 0.33 µM
- EC50 (HBV [2]; [5]): 0.83 µM
- CC50 at 4 days [3]: > 25000 nM

SMILES: Cc1cc(NC(=O)c2cc(S(=O)(=O)N[C@H]3CCOC3)ccc2F)ccc1F [Compound 236]
- EC50 (HBV [1]; [4]): 1.58 µM
- EC50 (HBV [2]; [5]): 0.48 µM
- CC50 at 4 days [3]: > 25000 nM

SMILES: Cc1cc(NC(=O)c2cc(S(=O)(=O)N[C@H]3CCOC3)ccc2Br)ccc1F [Compound 237]
- EC50 (HBV [1]; [4]): 0.13 µM
- EC50 (HBV [2]; [5]): 0.43 µM
- CC50 at 4 days [3]: > 25000 nM
